Measurements taken from patent US4786755A, “Diphenic acid monoamides” (Warner-Lambert Company, priority 1986, dated 1988).

Key:
Sensitized Guinea Pigs = assay: Slow-Onset (nonhistamine) Bronchospasm Induced by Antigen Challenge in Sensitized Guinea Pigs (SRSPIG); type: in vivo, guinea pig; set-up: concentration or dose not given beside the values; settings: mepyramine pretreated, five minutes after ovalbumin
From the text: Induction and Quantitation of the Slow-Onset (nonhistamine) Bronchospasm Induced by Antigen Challenge in Sensitized Guinea Pigs (SRSPIG)
This guinea pig in vivo model was developed to quantitate the pulmonary effects of nonhistamine mediated, antigen-induced anaphylaxis. Mepyramine pretreatment is used to block the effects of histamine to permit quantitation of the effects of other biologically active mediators. The method is designed to detect drugs which inhibit the release or synthesis "other" mediators, such as leukotriene, thromboxane, etc., or drugs blocking the end organ effects of these mediators. When a sensitized guinea pig is exposed to the sensitizing antigen, it develops a systemic anaphylactic response characterized by increased pulmonary resistance and decreased dynamic compliance (CDYN). Pulmonary resistance is a measure of the changes in transpulmonary pressure and respiratory flow. Dynamic compliance is an expression of the relative changes in tidal volume and transpulmonary pressure. In this model, dynamic compliance is used to measure changes in the elastic propertie of the small airways and pulmonary resistance to measure constrictive responses of the large airways. In human asthma, small airway changes appear to be more closely related to the pathogenesis of disease. Thus, dynamic compliance effects will be weighted more heavily in our analysis of the changes produced by drugs. In the presence of mepyramine, the effects of histamine are blocked. The observed pulmonary effects are thought to be largely leukotriene mediated. In the guinea pig, thromboxanes may also be involved (1,2) and might augment the leukotriene response. Since leukotrienes are not preformed mediators and their effects are slow in onset, in the absence of the histamine effect, a bronchospasm is not seen until approximately 1.5-3 minutes after antigen administration. However, the leukotriene-mediated response is long lasting.
Animals: Male Hartley strain guinea pigs, weighing between 200 and 250 g on delivery, were used. The animals were supplied by the Charles River Co., Wilmington, MA.
Sensitization Procedure: Ovalbumin (2× recrystallized, Miles Laboratories Ltd.) is dissolved (0.2 mg/ml) in saline. The guinea pigs are given a single intraperitoneal injection of 0.5 ml of the stock solution to sensitize them. The animals are maintained normally for four to six weeks before use.
Anesthesia: Surgical anesthesia is induced by giving an IP injection of valium, 5 mg/kg, followed immediately by Innovar-Vet (Pitman-More), 0.7 ml/kg (IM). Each ml of Innovar-Vet contains 0.4 mg fentanyl, 20 mg droperidol, 1.8 mg methylparaben, and 0.2 mg propylparaben.
Surgical Preparation: The anesthetized guinea pig is shaved in the ventral neck region and on the right side of the thorax and affixed supine to a dissecting board. A midline incision is made in the neck and the trachea is exposed. The jugular vein is cannulated with PE 50 tubing to administer drugs and antigen. The trachea is cannulated with PE 240 tubing. If the protocol required measuring blood pressure, the carotid artery is isolated and cannulated with PE 50 tubing. A spear-like cannula is then inserted into the thorax to measure transpulmonary pressure. Needle electrodes are inserted into the musculature of each leg to record electrocardiograms.
Pulmonary Mechanics Methods: The tracheal cannula is connected inline to a Fleisch 000 pneumotachograph (factor calibration 10 cm H2 O=22.2 ml/sec) and a Validyne differential pressure transducer, to measure respiratory flow. Transpulmonary pressure is measured by connecting one side of a Validyne pressure transducer to the side arm of the tracheal cannula and the other side to the cannula inserted into the thorax at approximately the 5th intercostal space.
The pressure and flow signals are fed into Validyne preamplifiers and then transmitted to a pulmonary mechanics computer (Buxco). […]

[1] = tested on: Isolated Guinea Pig Lung Parenchyma; assay: Smooth Muscle Receptor Agonism-Antagonism Activity Evaluations In Vitro (IVAS), LTC4-induced contraction; type: cell-based; settings: Cavia porcellus, LTC4-induced contraction
From the text: Smooth Muscle Receptor Agonism-Antagonism Activity Evaluations In Vitro (IVAS) Isolated Guinea Pig Lung Parenchyma
The potency of a test compound for receptor stimulation or antagonism, for example, can easily be determined since the concentration of the compound to which the muscle cell, or specialized responsive area on this cell, is exposed can be easily controlled and correlated with the recorded activity of muscle contraction or relaxation.
The procedures described herein are specifically concerned with the definition of a test drug action on isolated lung strips. Drug action is characterized either by an action per se on the tissues or by interaction with known smooth muscle receptor stimulants or antagonists.
Usually, the tests will be used to evaluate the ability of a test compound to antagonize the contraction induced by standard agonists in this case LTC4. A relative potency is derived by comparison with one of the standard blocking drugs. In caution, relative potencies of test compounds to known standards are valid only if full dose response curves are generated and the compound compared generate parallel dose/response curves with common maxima. Appropriate "within-trial" comparisons are also necessary.
Molecular antagonists compete with the agonist for the receptor. […] A physiological antagonist produces a response by action on a different receptor that causes an effect in opposition to the agonism.
A permanent isolated bath system is used which facilitates the vertical suspension of a segment of tissue in a small volume of a specific nutritive buffer. Frittered glass terminals provide dispersed bubbles of 95% oxygen and 5% carbon dioxide at the base of the individual tissue baths and the buffer reservoir. All baths and the reservoir are double-jacketed and water at 37° C. is circulated through the jacket of the baths to provide stable temperature regulation. The baths are arranged so that fresh solution from the reservoir passes through a jacketed glass coil to the base of the bath. The bubbling gas stirs the bath solution. During equilibration, fresh solution enters and excess solution is allowed to overflow. Unless a particular drug is required throughout the experiment and it is incorporated in the buffer, individual drugs are introduced directly into the bath by long hypodermic needles to the base of the bath without disturbing the tissue. Drugs are removed by rapidly draining the tissue bath from the bottom and refilling. Tissues are washed a minimum of six times. The emptying and refilling sequence takes only five seconds.
The contraction and relaxation of the smooth muscle preparation can be recorded either isotonically (change in length) or isometrically (change in tension). Isometric transducers are more sensitive and proportional. Isometric contractions are recorded electronically using Grass FT 0.03C force displacement transducers and Beckman Dynagraph recorders. The tissue is suspended vertically with one end of the segment anchored to the bottom of the bath and the other end attached to the mechanical electrical transducer muscle level. The electrical output of this transducer moves a pen on a moving chart in proportion to the force displacement.
Lung tissue is obtained from normal male guinea pigs. The heart and lungs are removed as a unit, placed in buffer, and the lungs are perfused with buffer by the spontaneously beating heart for several minutes.

| IC50 [1] | Compound | SRS-PIG, percent inhibition (CDYN) (Sensitized Guinea Pigs) | inhibition at 3 µM ([1]; @ 3 μM) |
| --- | --- | --- | --- |
| – | O=C(O)c1ccccc1-c1ccccc1C(=O)Nc1ccc(OCCCc2ccccc2)cc1 [Example 2] | 64% | – |
| 1000 nM | O=C(O)c1ccccc1-c1ccccc1C(=O)Nc1ccc(CCc2ccc(Cl)c(Cl)c2)cc1 [Example 3, [1,1'-Biphenyl]-2-carboxylic acid, 2'-[[[4-[2-(3,4-dichlorophenyl)ethyl]phenyl]amino]carbonyl]-] | 16% | – |
| – | O=C(O)c1ccccc1-c1ccccc1C(=O)Nc1ccc(CCCCCc2ccccc2)cc1 [Example 21, [1,1'-Biphenyl]-2-carboxylic acid, 2'-[[[4-(5-phenylpentyl)phenyl]amino]carbonyl]-] | 21% | – |
| – | O=C(O)c1ccccc1-c1ccccc1C(=O)Nc1ccc(CCCc2ccc(Cl)c(Cl)c2)cc1 [Example 1, [1,1'-Biphenyl]-2-carboxylic acid, 2'-[[[4-[3-(3,4-dichlorophenyl)propyl]phenyl]amino]carbonyl]-] | 51% | 90% |
| – | O=C(O)c1ccccc1-c1ccccc1C(=O)Nc1ccc(CCCc2ccccc2)cc1 [Example 16, [1,1'-Biphenyl]-2-carboxylic acid, 2'-[[[4-(3-phenylpropyl]phenyl]amino]carbonyl]-] | 33% | – |
| – | O=C(O)c1ccccc1-c1ccccc1C(=O)Nc1cccc(CCc2ccc(Cl)c(Cl)c2)c1 [Example 4, [1,1'-Biphenyl]-2-carboxylic acid, 2'-[[[3-[2-(3,4-dichlorophenyl)ethyl]phenyl]amino]carbonyl]-] | 3% | – |
